Assay results taken from publication PMC2847018 (Biochemical pharmacology, 2010).
Entries after “also recorded” stand apart in the source; their conditions may differ. Counter-ions that a name gives are not always drawn. Like-named read-outs stand apart in the source and are kept apart here.

Key:
[1] = test system: placental carbonyl-reducing enzymes (human placental microsomes); format: biochemical; settings: bupropion 40 μM, pooled placental microsomes, 40 min 37°C; for effect on formation of threo- and erythrohydrobupropion: inhibitor 500 μM
[2] = test system: placental carbonyl-reducing enzymes (human placental microsomes); experiment: Type of inhibition and Ki of 18β-GA on bupropion reduction; format: biochemical; settings: Lineweaver-Burk plot: apparent Km increased, Vmax not affected
[3] = test system: 11β-HSD1; settings: 11β-HSD1 ref 44; cited from earlier work
[4] = Kinetics of bupropion reduction by human placental microsomes; format: in vitro ADME; settings: Mean±S.D. of HPM 1-6

Compound: Cc1cn[nH]c1 [4-methylpyrazole]
- effect on formation of threo- and erythrohydrobupropion [1]: did not inhibit

Compound: CC1(C)[C@@H](O)CC[C@]2(C)[C@H]3C(=O)C=C4[C@@H]5C[C@@](C)(C(=O)O)CC[C@]5(C)CC[C@@]4(C)[C@]3(C)CC[C@@H]12 [18β-GA, 18β-glycyrrhetinic acid]
- inhibition of formation of threo- and erythrohydrobupropion ([1]; inhibitor 0.1 μM): 80%
- type of inhibition of bupropion reduction [2]: competitive

Compound: CCC1(CC)C(=O)NC(=O)NC1=O [barbital]
- effect on formation of threo- and erythrohydrobupropion [1]: did not inhibit

Compound: CC(NC(C)(C)C)C(=O)c1cccc(Cl)c1 (stereo not shown) [bupropion, Bupropion hydrochloride]
- Vmax, erythrohydrobupropion formation [4]: 3.1±1.2 picomoles per minute per milligram of protein
- Vmax, threohydrobupropion formation [4]: 18.6±6.1 picomoles per minute per milligram of protein

Compound: O=c1oc2ccccc2c(O)c1Cc1c(O)c2ccccc2oc1=O [dicumarol]
- effect on formation of threo- and erythrohydrobupropion [1]: did not inhibit; also recorded: did not affect

Compound: O=C(O)c1ccccc1Nc1cccc(C(F)(F)F)c1 [flufenamic acid]
- inhibition of formation of threo- and erythrohydrobupropion ([1]; inhibitor 4 μM): 50%

Compound: CC1=CC(=O)c2ccccc2C1=O [menadione]
- inhibition of formation of threo- and erythrohydrobupropion ([1]; inhibitor 100 μM): 70%
